This note sets out measurements from patent publication US9227923B2, “Pesticidal carboxamides” (Bayer Intellectual Property GmbH, priority 2009, dated 2016).

Experiment [1] deals with Cucurbit Leaf Beetle (Aulacophora Femoralis). The experiment can be described thus: Test against cucurbit leaf beetle (Aulacophora femoralis), leaf dip. It is filed as in vivo. Particulars: active compound concentration of 100 ppm; second instar larvae; after 7 days. The procedure: (§1) Solvent: 3 parts by weight of dimethylformamide
(§2) Emulsifier: 1 part by weight of polyoxyethylene alkyl phenyl ether
Leaves of cucumber were immersed in the test solution at the appropriate concentration, and the leaves were dried in air. The leaves were then put in a plastic cup containing sterilized black soil and five Aulacophora femoralis at second instar larvae were released in the cup. The cups were placed in a temperature-controlled chamber at 25° C. After 7 days, the number of dead larvae was counted, and thus the insecticidal activity was calculated. An insecticidal activity of 100% means that all larvae were killed, whereas an insecticidal activity of 0% means that no larva was killed.

The test system of experiment [2] is Tobacco Cutworm (Spodoptera litura) Larvae. The experiment is described as follows: Test against tobacco cutworm (Spodoptera litura) larvae, leaf dip. Particulars: active compound concentration of 100 ppm, third instar larvae, after 7 days; for pest or weed control at 100 ppm: Spodoptera litura, foliar, 168 h, read-out: insecticidal activity. It counts as in vivo. The procedure: as §1, §2
Leaves of sweet potato were immersed in the test solution at the appropriate concentration, and the leaves were dried in air. The leaves were then placed in a petri dish having a diameter of 9 cm, and ten Spodoptera litura at third instar larvae were released therein. The petri dishes were placed in a temperature-controlled chamber at 25° C. After 2 days and 4 days more sweet potato leaves were added. After 7 days, the number of dead larvae was counted to calculate the insecticidal activity. An insecticidal activity of 100% means that all larvae were killed, whereas an insecticidal activity of 0% means that no larva was killed.

Each structure is given as a SMILES string.

On to `N#Cc1ccc(C(=O)Nc2c(Cl)cc(C(F)(C(F)(F)F)C(F)(F)C(F)(F)F)cc2Cl)cc1` (centres unmarked) [Compound I-27], for which the insecticidal activity in experiment [1] and in experiment [2] was 100% each time.
On to `CCC(=O)NCc1ccc(C(=O)Nc2c(C)cc(C(F)(C(F)(F)F)C(F)(F)F)cc2CC)nc1` [Compound 7-3], for which the insecticidal activity in experiment [1] and in experiment [2] was 100% throughout.
In the case of `CCc1cc(C(F)(C(F)(F)F)C(F)(F)F)cc(C)c1NC(=O)c1ccc(CNC(C)=O)cc1Cl` [Compound 5-65], the insecticidal activity in experiment [1] amounted to 100%.
For `N#Cc1ccc(C(=O)Nc2c(Br)cc(C(F)(C(F)(F)F)C(F)(F)F)cc2Br)cc1` [Compound I-26], the insecticidal activity in experiment [1] and in experiment [2] was 100% throughout.
Turning to `CCc1cc(C(F)(C(F)(F)F)C(F)(F)F)cc(C)c1NC(=O)c1ccc(CNC(=O)c2cccc(F)c2)cc1` [Compound 5-35], the insecticidal activity in experiment [1] and in experiment [2] was 100% each time.
Regarding `CCc1cc(C(F)(C(F)(F)F)C(F)(F)F)cc(C)c1NC(=O)c1ccc(CNC(=O)c2cccnc2F)c2ccccc12` [Compound 6-7], the insecticidal activity in experiment [1] and in experiment [2] was 100% throughout.
As for `N#Cc1ccc(C(=O)Nc2c(Cl)cc(C(F)(C(F)(F)F)C(F)(F)F)cc2Cl)cc1` [Compound I-24], the insecticidal activity in experiment [1] and in experiment [2] was 100% each time.
`O=C(CC(F)(F)F)NCc1ccc(C(=O)Nc2c(Cl)cc(C(F)(C(F)(F)F)C(F)(F)F)cc2Cl)cc1` [Compound 5-226]: the insecticidal activity in experiment [1] is reported as 100%.
For `CCC(=O)NCc1ccc(C(=O)Nc2c(C)cc(C(F)(C(F)(F)F)C(F)(F)C(F)(F)F)cc2C)cc1` (centres unmarked) [Compound 5-127], the insecticidal activity in experiment [1] amounted to 100%.
With `CCc1cc(C(F)(C(F)(F)F)C(F)(F)F)cc(C)c1NC(=O)c1ccc(CNC(C)=O)c(C(F)(F)F)c1` [Compound 5-106], the insecticidal activity in experiment [2] is reported as 100%.
In the case of `CCc1cc(C(F)(C(F)(F)F)C(F)(F)F)cc(C)c1NC(=O)c1ccc(CNC(=O)C(F)(F)F)c(Br)c1` [Compound 5-349], in experiment [2], the insecticidal activity was determined as 100%.
Still for that read-out and setting: under `CCc1cc(C(F)(C(F)(F)F)C(F)(F)F)cc(C)c1NC(=O)c1ccc(CNC(=O)c2ccccc2Cl)cc1` [Compound 5-37] stands 100%.
Turning to `O=C(Nc1c(Cl)cc(C(F)(C(F)(F)F)C(F)(F)F)cc1Cl)c1ccc(I)c(Cl)c1` [Compound A-7, 3-chloro-N-[2,6-dichloro-4-(1,1,1,2,3,3,3-heptafluoropropan-2-yl)phenyl]-4-iodobenzamide], in experiment [2], the pest or weed control at 100 ppm turned out to be 100%.
Compound `CCC(=O)NCc1ccc(C(=O)Nc2c(C)cc(C(F)(C(F)(F)F)C(F)(F)C(F)(F)F)cc2CC)cc1Br` (centres unmarked) [Compound 5-158] displayed an insecticidal activity in experiment [2] of 100%.
In turn, `CCc1cc(C(F)(C(F)(F)F)C(F)(F)F)cc(C)c1NC(=O)c1ccc(CNC(=O)c2cccc(Cl)c2)cc1` [Compound 5-38] had an insecticidal activity in experiment [2] of 100%.
Same read-out and setting: under `CCc1cc(C(F)(C(F)(F)F)C(F)(F)F)cc(C)c1NC(=O)c1ccc(CNC(=O)C2CC2)c(C(F)(F)F)c1` [Compound 5-108] stands 100%.
For `CCC(=O)NCc1ccc(C(=O)Nc2c(Cl)cc(C(F)(C(F)(F)F)C(F)(F)F)cc2Cl)cc1Cl` [Compound 5-230, 3-chloro-N-[2,6-dichloro-4-(1,1,1,2,3,3,3-heptafluoropropan-2-yl)phenyl]-4-[(propionylamino)methyl]benzamide], in experiment [2], the pest or weed control at 100 ppm was found to be 100%.
The compound `Cc1cc(C(F)(C(F)(F)F)C(F)(F)F)cc(C)c1NC(=O)c1ccc(-n2cncn2)cc1Cl` [Compound 1-5] registered an insecticidal activity in experiment [1] of 100%.
Compound `CCc1cc(C(F)(C(F)(F)F)C(F)(F)F)cc(C)c1NC(=O)c1ccc(CN)c(Br)c1` [Compound 5-83] registered an insecticidal activity in experiment [2] of 100%.
`CCc1cc(C(F)(C(F)(F)F)C(F)(F)F)cc(C)c1NC(=O)c1ccc(C#N)cc1` [Compound I-2] had an insecticidal activity in experiment [2] of 100%.
